Experiments:
Format in all cases: in vivo
[1] = test system: ryegrass, Italian (Italian ryegrass, Lolium multiflorum); experiment: Test A greenhouse herbicide test, pre- and postemergence
Description: (§1) Seeds of plant species selected from barnyardgrass (Echinochloa crus-galli), kochia (Kochia scoparia), ragweed (common ragweed, Ambrosia elatior), ryegrass, Italian (Italian ryegrass, Lolium multiflorum), crabgrass, large (large crabgrass, Digitaria sanguinalis), foxtail, giant (giant foxtail, Setaria faberii), momingglory (Ipomoea spp.), pigweed (Amaranthus retroflexus), velvetleaf (Abutilon theophrasti), wheat (Triticum aestivum), and corn (Zea mays) were planted into a blend of loam soil and sand and treated preemergence with a directed soil spray using test chemicals formulated in a non-phytotoxic solvent mixture which included a surfactant.
(§2) At the same time, plants selected from these crop and weed species and also blackgrass (Alopecurus myosuroides), and galium (catchweed bedstraw, Galium aparine) were planted in pots containing the same blend of loam soil and sand and treated with postemergence applications of test chemicals formulated in the same manner. Plants ranged in height from 2 to 10 cm and were in the one- to two-leaf stage for the postemergence treatment. Treated plants and untreated controls were maintained in a greenhouse for approximately 10 d, after which time all treated plants were compared to untreated controls and visually evaluated for injury. Plant response ratings, summarized in Table A, are based on a 0 to 100 scale where 0 is no effect and 100 is complete control. A dash (-) response means no test result.

kochia (Kochia scoparia) = experiment: as above
Description: as §1, §2

[2] = test system: foxtail, giant (giant foxtail, Setaria faberii); experiment: as above
Description: as §1, §2

[3] = test system: barnyardgrass (Echinochloa crus-galli); experiment: as above
Description: as §1, §2

[4] = test system: pigweed (Amaranthus retroflexus); experiment: as above
Description: as §1, §2

[5] = test system: ragweed (common ragweed, Ambrosia elatior); experiment: as above
Description: as §1, §2

[6] = test system: wheat (Triticum aestivum); experiment: as above; settings: Postemergence; for Plant response rating, Wheat: 125 g ai/ha, 0 to 100 scale where 0 is no effect and 100 is complete control; for Wheat plant response rating: 500 g ai/ha, 0 to 100 scale, 0 is no effect, 100 is complete control
Description: as §1, §2

corn (Zea mays) = experiment: as above; settings: Postemergence; for Plant response rating, Corn: 125 g ai/ha, 0 to 100 scale where 0 is no effect and 100 is complete control; for Corn plant response rating: 500 g ai/ha, 0 to 100 scale, 0 is no effect, 100 is complete control
Description: as §1, §2

[7] = test system: galium (catchweed bedstraw, Galium aparine); experiment: Test A greenhouse herbicide test, postemergence; settings: for Plant response rating, Galium: 125 g ai/ha, 0 to 100 scale where 0 is no effect and 100 is complete control; for Galium plant response rating: 500 g ai/ha, 0 to 100 scale, 0 is no effect, 100 is complete control
Summary of the method: (§3)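 Greenhouse postemergence test: formulated chemicals sprayed on one- to two-leaf plants (2 to 10 cm), grown in loam soil blended with sand. Injury assessed visually about 10 d later against untreated controls, scored 0 (no effect) to 100 (complete control).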

[8] = test system: blackgrass (Alopecurus myosuroides); experiment: Test A greenhouse herbicide test, postemergence; settings: for Plant response rating, Blackgrass: 125 g ai/ha, 0 to 100 scale where 0 is no effect and 100 is complete control; for Blackgrass plant response rating: 500 g ai/ha, 0 to 100 scale, 0 is no effect, 100 is complete control
Summary of the method: as §3

[9] = test system: sedge, umbrella (small-flower umbrella sedge, Cyperus difformis); experiment: Test B flooded paddy test; settings: 250 g ai/ha, Flood; visual rating on scale of 0 to 100 where 0 is no effect and 100 is complete control; 13 to 15 d after treatment
Method: (§4) Plant species in the flooded paddy test selected from rice (Oryza sativa), sedge, umbrella (small-flower umbrella sedge, Cyperus difformis), ducksalad (Heteranthera limosa), and barnyardgrass (Echinochloa crus-galli) were grown to the 2-leaf stage for testing. At time of treatment, test pots were flooded to 3 cm above the soil surface, treated by application of test compounds directly to the paddy water, and then maintained at that water depth for the duration of the test. Treated plants and controls were maintained in a greenhouse for 13 to 15 d, after which time all species were compared to controls and visually evaluated. Plant response ratings, summarized in Table B, are based on a scale of 0 to 100 where 0 is no effect and 100 is complete control. A dash (-) response means no test result.

[10] = test system: barnyardgrass (Echinochloa crus-galli); experiment: Test B flooded paddy test; settings: 250 g ai/ha, Flood; visual rating on scale of 0 to 100 where 0 is no effect and 100 is complete control; 13 to 15 d after treatment
Method: as §4

rice (Oryza sativa) = experiment: Test B flooded paddy test; settings: 250 g ai/ha, Flood; visual rating on scale of 0 to 100 where 0 is no effect and 100 is complete control; 13 to 15 d after treatment
Method: as §4

[11] = test system: ducksalad (Heteranthera limosa); experiment: Test B flooded paddy test; settings: 250 g ai/ha, Flood; visual rating on scale of 0 to 100 where 0 is no effect and 100 is complete control; 13 to 15 d after treatment
Method: as §4

[12] = Postemergence, 125 g ai/ha, 0 to 100 scale where 0 is no effect and 100 is complete control
[13] = Postemergence, 500 g ai/ha, 0 to 100 scale, 0 is no effect, 100 is complete control
[14] = Preemergence, 125 g ai/ha, 0 to 100 scale where 0 is no effect and 100 is complete control
[15] = Preemergence, 500 g ai/ha, 0 to 100 scale, 0 no effect, 100 complete control
[16] = Preemergence, 500 g ai/ha, 0 to 100 scale where 0 is no effect and 100 is complete control

Row | SMILES | Plant response rating, Ryegrass, Italian [1, 12] | Ryegrass, Italian plant response rating [1, 13] | Ryegrass, Italian plant response rating [1, 14] | Plant response rating, Kochia (kochia (Kochia scoparia); [12]) | Kochia plant response rating (kochia (Kochia scoparia); [13]) | Kochia plant response rating (kochia (Kochia scoparia); [14]) | Plant response rating, Foxtail, Giant [2, 12] | Foxtail, Giant plant response rating [2, 13] | Foxtail, Giant plant response rating [2, 14] | Plant response rating, Barnyardgrass [3, 12] | Barnyardgrass plant response rating [3, 13] | Barnyardgrass plant response rating [3, 14] | Plant response rating, Barnyardgrass [3, 15] | Plant response rating, Pigweed [4, 12] | Pigweed plant response rating [4, 13] | Pigweed plant response rating [4, 14] | Plant response rating, Ragweed [5, 12] | Ragweed plant response rating [5, 13] | Ragweed plant response rating [5, 14] | Plant response rating, Wheat [6] | other results
1 | COc1ccc(-c2c(O)c(C)nn(C)c2=O)c2ccccc12 [Compound 58] | 60 | 80 | 70 | 20 | 90 | 20 | 0 | 10 | 0 | 0 | 0 | 0 | 20 | 0 | 20 | 0 | 0 | 60 | 70 | 0 | Plant response rating, Ryegrass, Italian [1, 15]: 100; Plant response rating, Kochia (kochia (Kochia scoparia); [15]): 80; Plant response rating, Foxtail, Giant [2, 15]: 0; Plant response rating, Pigweed [4, 15]: 20; Plant response rating, Ragweed [5, 15]: 80; Wheat plant response rating [6]: 20; Plant response rating, Corn (corn (Zea mays)): 0; Corn plant response rating (corn (Zea mays)): 0; Plant response rating, Galium [7]: 70; Galium plant response rating [7]: 100; Plant response rating, Blackgrass [8]: 20; Blackgrass plant response rating [8]: 50; Plant response rating, Sedge, Umbrella [9]: 0; Plant response rating, Barnyardgrass [10]: 0; Plant response rating, Rice (rice (Oryza sativa)): 0; Plant response rating, Ducksalad [11]: 0
2 | CCC(=O)Oc1c(C)nn(C)c(=O)c1-c1ccc(Cl)c2ccccc12 [Compound 62] | 100 | 100 | 100 | 100 | 100 | 90 | 80 | 90 | 50 | 70 | 90 | 50 | 90 | 100 | 100 | 100 | 100 | 100 | 70 | 0 | Plant response rating, Ryegrass, Italian [1, 15]: 100; Plant response rating, Kochia (kochia (Kochia scoparia); [15]): 90; Plant response rating, Foxtail, Giant [2, 15]: 90; Plant response rating, Pigweed [4, 15]: 100; Plant response rating, Ragweed [5, 15]: 90; Wheat plant response rating [6]: 50; Plant response rating, Corn (corn (Zea mays)): 10; Corn plant response rating (corn (Zea mays)): 30; Plant response rating, Galium [7]: 100; Galium plant response rating [7]: 100; Plant response rating, Blackgrass [8]: 70; Blackgrass plant response rating [8]: 80; Plant response rating, Sedge, Umbrella [9]: 75; Plant response rating, Barnyardgrass [10]: 20; Plant response rating, Rice (rice (Oryza sativa)): 0; Plant response rating, Ducksalad [11]: 20
3 | COC(=O)Oc1c(C)nn(C)c(=O)c1-c1ccc(Cl)c2ccccc12 [Compound 63] | 100 | 100 | 100 | 100 | 100 | 100 | 70 | 90 | 40 | 60 | 90 | 80 | 90 | 100 | 100 | 100 | 100 | 100 | 80 | 0 | Plant response rating, Ryegrass, Italian [1, 15]: 100; Plant response rating, Kochia (kochia (Kochia scoparia); [15]): 100; Plant response rating, Foxtail, Giant [2, 15]: 70; Plant response rating, Pigweed [4, 15]: 100; Plant response rating, Ragweed [5, 15]: 90; Wheat plant response rating [6]: 40; Plant response rating, Corn (corn (Zea mays)): 0; Corn plant response rating (corn (Zea mays)): 40; Plant response rating, Galium [7]: 100; Galium plant response rating [7]: 100; Plant response rating, Blackgrass [8]: 70; Blackgrass plant response rating [8]: 80; Plant response rating, Sedge, Umbrella [9]: 65; Plant response rating, Barnyardgrass [10]: 0; Plant response rating, Rice (rice (Oryza sativa)): 0; Plant response rating, Ducksalad [11]: 30
4 | CCOc1ccc2oc(CC)c(-c3c(O)c(C)nn(C)c3=O)c2c1 [Compound 68] | 0 | 0 | 0 | 0 | 0 | 0 | 10 | 50 | 10 | 70 | 80 | 10 | 40 | 0 | 0 | 0 | 0 | 0 | 0 | 0 | Plant response rating, Ryegrass, Italian [1, 16]: 0; Plant response rating, Kochia (kochia (Kochia scoparia); [16]): 0; Plant response rating, Foxtail, Giant [2, 16]: 50; Plant response rating, Pigweed [4, 16]: 0; Plant response rating, Ragweed [5, 16]: 20; Wheat plant response rating [6]: 0; Plant response rating, Corn (corn (Zea mays)): 0; Corn plant response rating (corn (Zea mays)): 0; Plant response rating, Galium [7]: 0; Galium plant response rating [7]: 0; Plant response rating, Blackgrass [8]: 0; Blackgrass plant response rating [8]: 10; Plant response rating, Sedge, Umbrella [9]: 30; Plant response rating, Barnyardgrass [10]: 0; Plant response rating, Rice (rice (Oryza sativa)): 0; Plant response rating, Ducksalad [11]: 0
5 | Cc1nn(C)c(=O)c(-c2c(C)n(C)c3ccc(Cl)cc23)c1O [Compound 74] | 0 | 0 | 0 | 30 | 30 | 0 | 0 | 20 | 0 | 0 | 10 | 0 | 0 | 40 | 50 | 30 | 0 | 10 | 0 | 0 | Plant response rating, Ryegrass, Italian [1, 16]: 0; Plant response rating, Kochia (kochia (Kochia scoparia); [16]): 0; Plant response rating, Foxtail, Giant [2, 16]: 0; Plant response rating, Pigweed [4, 16]: 50; Plant response rating, Ragweed [5, 16]: 0; Wheat plant response rating [6]: 0; Plant response rating, Corn (corn (Zea mays)): 0; Corn plant response rating (corn (Zea mays)): 0; Plant response rating, Galium [7]: 10; Galium plant response rating [7]: 20; Plant response rating, Blackgrass [8]: 20; Blackgrass plant response rating [8]: 40; Plant response rating, Sedge, Umbrella [9]: 0; Plant response rating, Barnyardgrass [10]: 0; Plant response rating, Rice (rice (Oryza sativa)): 0; Plant response rating, Ducksalad [11]: 0

Reference: patent US10597388B2, “Pyridazinone herbicides” (FMC CORPORATION, priority 2014, dated 2020)
